The test system of experiment [1] is UCB derived MNC (mature lymphocytes, CD3). Description: CD3 expression by FACS after lyophilization and re-hydration. The class given is cell-based, human. As to conditions: 0.1M trehalose. The method, then:
Sample's volume was 2.5 ml and samples were frozen and then lyophilized as described above. After being in the lyophilizer for 72 h, the samples were taken out and re-hydrated with 2.4 ml of DDW at 37° C. After re-hydration samples were assayed for CD3 using FACS (fluorescent-activated cell sorter) in accordance with the method described in Hulling et al. The Journal of Immunology 2003, 171: 4824-4829.

In experiment [2] the test system is mononuclear cells (MNC) derived from umbilical cord blood (UCB). The experiment in a line: Membrane integrity (SYBR14/PI live/dead stain) of UCB derived MNC after freeze thawing or freeze drying. The class given is cell-based, human. The conditions noted are these: for Membrane integrity (%): 0.1M trehalose in PBS. Here is the method:
In the following experiments umbilical cord blood (UCB) was received from “Sheba” Medical Center. The blood was separated on ficoll-paque gradient. 3 ml of Histopaque 1077 was put in a 15 ml plastic test tube. Above it 3 ml of UCB was put and the samples were centrifuged for 30 minutes at 1000 g. After spinning was finished the mononuclear layer was taken out and PBS was added up to 10 ml total volume. The samples were centrifuged again for 10 minutes at 200 g or 250 g., after which, the supernatant was discarded and another step of washing was performed (again, 10 ml PBS was added and samples were centrifuged for 10 minutes at 250 g). At the end of this step a freezing solution (as detailed in each experiment) was added to the cells pellet. The volume of the freezing solution varied depending on the desired cell concentration (concentrations may range for example from 1 to 10×10^6 cells/ml) or volume. Unless otherwise mentioned, a 2.5 ml cell suspension was transferred into a 16 mm glass tube that was then frozen using a multi-gradient directional freezing system (MTG-516 by IMT, Israel), operated essentially as described in WO03/020874.
Unless otherwise stated, the directional freezing system temperatures were set to: 5° C. to −10° C. to −40° C. to −70° C. Seeding was performed before the samples entered the −10° C. temperature. The velocity at which the samples were pushed through the channels of the freezing machine was set to 0.2 mm/sec, resulting in a cooling rate of 5.1° C./min. During freezing the samples were rotated at 60 rounds per minute (RPM). After completion of the freezing process, samples were put in a liquid-nitrogen (LN) tank until they were either thawed or transferred into a lyophilizer.
Lyophilization was performed by taking samples out of the LN tank and putting them in a commercial lyophilizer near the condenser (Labconco, USA), at condenser temperature of −80° C. Samples were held in the lyophilizer for 3 days. After 3 days of lyophilization samples were taken out and rehydrated with 2.4 ml of double distilled water (DDW) at 37° C.
Viability was assessed using the live/dead fluorescent stain SYBR14/PI (Propidium Iodide) or SYTO/PI (both from Molecular Probes, USA) for membrane integrity. These stains are nucleic acid stains, SYBR14 and SYTO are membrane permeable molecules and PI can enter the cell only if the membrane is damaged. Where so specified, the assay used was trypan blue (TB).

Another experiment relates to UCB derived MNC. Description: Cell proliferation assay based on thymidine incorporation. The arrangement: species or system human. As to conditions: cells lyophilized at ×10 EGCG (1.89 mg/ml) compared with ×2.5 EGCG (0.47 mg/ml); 48 hour incubation; FIG. 3. The method, then: Sample's volume was 2.5 ml and samples were frozen and then lyophilized as described above. After being in the lyophilizer for 72 h, the samples were taken out and re-hydrated with 2.4 ml of DDW at 37° C. After re-hydration samples were assayed for CD3 using FACS (fluorescent-activated cell sorter) in accordance with the method described in Hulling et al. The Journal of Immunology 2003, 171: 4824-4829. In addition, a cell proliferation assay was performed. In brief, the hydrated cells were incubated for 48 hour after which a proliferation assay based on thymidine incorporation was carried out (Promega, USA). The results of the proliferation assay are depicted in FIG. 3, wherein the proliferation index of the cells is depicted as a function of their number at initial plating.
(In general: Uptake of a labelled nucleoside into DNA is a usual measure of proliferation.)

The next experiment has as its system macrophages. Description: Membrane integrity (SYBR14/PI) of macrophage units after freeze thawing and freeze drying. The class given is cell-based. As to conditions: for cell survival (membrane integrity): freeze-dried, 0.5M Trehalose. The text has this:
Macrophage units were supplied by Professor Danon, Israel blood services, Tel-Hashomer, Israel. In the following experiments all buffy coats and/or macrophage units referred to were manipulated using the method and system for cultivating macrophages described in U.S. Pat. No. 6,146,890 which is incorporated herein by reference in its entirety, whereby hypo-osmotic shock is used to enhance the cells' differentiation into macrophages. Such manipulated cells were reported not to maintain viability after a conventional freezing process therefore their shelf life is very short, limiting their applications.
A part of the buffy coat was separated in order to produce mononuclear cells which include the monocyte/macrophage layer. The blood was separated on a Ficoll-Paque gradient for 30 minutes at 1000 g, afterwards the mononuclear layer was drawn out and washed twice in Phosphate Buffered Saline (PBS) (Calcium and Magnesium free, Bet Haemek, Israel) for 10 minutes at 200 g. The pellet was then resuspended with 3 ml of culture medium (RPMI 1640 with glutamine, 10% fetal calf serum and 1% antibiotic, all supplied by Bet Haemek, Israel). The rest of the buffy coat was left untouched.
Whole buffy coat or mononuclear cells in culture medium were incubated for one hour with different concentrations of Trehalose (0.1, 0.3, 0.5 and 1M). Incubation was done at 37° C., 5% CO2 humidified incubator.
Buffy coat samples and MNC samples were frozen by using the MTG-516 freezing apparatus (IMT, Israel) at a cooling rate of 5.1° C./min. Samples were rotated during freezing at 56 rounds per minute. After freezing, all samples were plunged into liquid nitrogen. Thawing was done at 37° C. in a water bath. Lyophilization was done by putting the frozen samples in a commercial lyophilizer (Labconco, USA) with a condenser temperature of −80° C. After drying, the cells were rehydrated with ultra pure water at 37° C. in order to regain their original volume (2.5 ml). […]

Values joined by “and” are separate entries in the source; they are usually repeats but may differ in a detail not shown here. Identical values can stand only once.

Consider `O=C(O[C@@H]1Cc2c(O)cc(O)cc2O[C@@H]1c1cc(O)c(O)c(O)c1)c1cc(O)c(O)c(O)c1` [EGCG, Epigallocatechin gallate], for which the “CD3 (%)” value in experiment [1] (Lyophilized with 0.47 mg/ml EGCG) was 80%; in experiment [1] (Lyophilized with 1.89 mg/ml EGCG) it was 81% and 83% and 82% and 78%. In addition, the membrane integrity entry in experiment [2] (0.1M trehalose with 0.945 or 1.89 mg/ml EGCG, lyophilized and rehydrated, FIG. 2B) is recorded as “very high”. Further, the “viability (EGCG dose response)” value in experiment [2] (0.4M Trehalose, 0.189, 0.47, 0.945 and 1.89 mg/ml EGCG, after freezing and thawing and after freeze drying and re-hydration (exception 0.945 mg/ml after freeze-drying)) is “increased with increasing EGCG concentration”. Moreover, the “Membrane integrity (%)” value in experiment [2] (Fresh with 0.47 mg/ml EGCG) was 97.36 ± 2.2%; in experiment [2] (Lyophilized with 0.47 mg/ml EGCG, re-hydrated) it was 55.1 ± 8.5% and 59.8 ± 1.4%. Besides, in experiment [2] (after freeze drying with 1.89 mg/ml EGCG, 0.4M Trehalose in PBS, FIG. 2A), the “percentage of cells that presented an intact membrane” value is given as “about 90%”. Also, in the experiment with UCB derived MNC, the proliferation index result was “higher proliferation index”.

With `OC[C@H]1O[C@H](O[C@H]2O[C@H](CO)[C@@H](O)[C@H](O)[C@H]2O)[C@H](O)[C@@H](O)[C@@H]1O` [trehalose, Trehalose], the “cell survival (membrane integrity)” value in the experiment on macrophages (second experiment, FIG. 6C) is reported as 55.35±2.9%; with macrophages (without Ficoll-Paque separation, FIG. 6B), 91.86±4.2%. The membrane integrity with macrophages (frozen-thawed with 0.5M trehalose, whole macrophage units, FIG. 6C) was determined as 72.03±2.8%.

(Values after patent publication US8198085B2, “Somatic cells for use in cell therapy” (Core Dynamics Limited, priority 2005, dated 2012).)
